The results in this text go back to patent publication US10040798B2, “Pyrrolopyridazine inhibitors of IRAK4 activity” (MERCK SHARP & DOHME CORP., priority 2015, dated 2018).

The assay concerns the target IRAK4 (Homo sapiens (Human), UniProt Q9NWZ3). Briefly: IRAK4 Kinase Assay (IMAP fluorescence polarization). The format is biochemical. The conditions noted are these: 0.5 nM GST tagged IRAK4, 100 μM ATP, 30 minutes at 25° C., IMAP FP. The method, then: The kinase activity of IRAK4 is determined by its ability to catalyze the phosphorylation of a fluorescent polypeptide substrate. The extent of phosphorylation is measured using the IMAP technology (Molecular Devices) where the phosphorylated fluorescent substrate binds to the large M (III)-based nanoparticles which reduces the rotational speed of the substrate and thus increases its fluorescent polarization (FP).
20 μL reaction mixture contains 10 mM TriHCl, pH 7.2, 0.5 nM GST tagged IRAK4 (SignalChem), 100 nM fluorescent peptide substrate (RP7030, Molecular Devices), 100 μM ATP, 1 mM DDT, 1 mM MgCl2, and 0.01% Tween 20. The reaction is initiated by the addition of ATP. After incubation for 30 minutes at 25° C., 60 μL of Progressive IMAP Reagent (Molecular Devices) is added to stop the reaction. Change in RP7030's FP is determined by a FP reader (Analyst HT, LJL BioSystems).
In general terms: In fluorescence polarisation assays a small probe gives low polarisation when free and higher when bound to something large.

The structures appear in SMILES notation. Structures can show the parent of a compound that is named as a salt.

IRAK4, sequence (Q9NWZ3 whole entry): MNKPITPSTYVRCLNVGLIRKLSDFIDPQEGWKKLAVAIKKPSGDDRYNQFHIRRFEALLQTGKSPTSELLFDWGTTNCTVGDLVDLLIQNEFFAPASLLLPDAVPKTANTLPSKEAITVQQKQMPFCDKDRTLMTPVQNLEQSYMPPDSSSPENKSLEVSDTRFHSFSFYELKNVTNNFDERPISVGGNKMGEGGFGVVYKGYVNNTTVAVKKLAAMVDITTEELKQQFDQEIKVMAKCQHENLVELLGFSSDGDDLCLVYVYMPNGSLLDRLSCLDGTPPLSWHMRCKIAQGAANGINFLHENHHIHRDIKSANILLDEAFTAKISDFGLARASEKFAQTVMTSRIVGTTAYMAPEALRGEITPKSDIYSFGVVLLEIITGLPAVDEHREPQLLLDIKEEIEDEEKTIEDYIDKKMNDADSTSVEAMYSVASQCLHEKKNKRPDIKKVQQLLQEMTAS

Consider `Cn1cc(NC(=O)c2ccc3ccc(N4C[C@H]5CN[C@H](C5)C4)nn23)c(C(F)(F)F)n1` (single isomer, unassigned) [Example 4, 2-[(1S,5S)- or (1R,5R)-3,6-diazabicyclo[3.2.1]oct-3-yl]-N-[1-methyl-3-(trifluoromethyl)-1H-pyrazol-4-yl]pyrrolo[1,2-b]pyridazine-7-carboxamide], for which it took 0.131 µM to reach half-maximal inhibition (IC50). Turning to `O=C(Nc1ccccc1Br)c1ccc2ccc(N[C@@H]3CCCC[C@@H]3O)nn12` [Example 95, N-(2-bromophenyl)-2-{[(1R,2S)-2-hydroxycyclohexyl]amino}pyrrolo[1,2-b]pyridazine-7-carboxamide trifluoroacetate], 5.86 µM corresponded to half-maximal inhibition (IC50). For the compound `N#Cc1ccccc1NC(=O)c1ccc2ccc(N3CCC[C@@H](N)C3)nn12` [Example 107, 2-[(3R)-3-aminopiperidin-1-yl]-N-(2-cyanophenyl) pyrrolo[1,2-b]pyridazine-7-carboxamide trifluoroacetate], the IC50 (in general, the concentration at which inhibition is half-maximal) came to 0.026 µM. The compound `Cn1cc(NC(=O)c2ccc3ccc(N[C@@H]4CCCNC4)nn23)c(C(F)F)n1` [Example 16, N-[3-(difluoromethyl)-1-methyl-1H-pyrazol-4-yl]-2-[(3R)-piperidin-3-ylamino]pyrrolo[1,2-b]pyridazine-7-carboxamide trifluoroacetate] came in with an IC50 of 0.0009 µM. The compound `Cn1cc(NC(=O)c2ccc3ccc(N4C[C@@H]5CN[C@@H](C5)C4)nn23)c(C(F)F)n1` (single isomer, unassigned) [Example 51, 2-[(1S,5S)- or (1R,5R)-3,6-diazabicyclo[3.2.1]oct-3-yl]-N-[3-(difluoromethyl)-1-methyl-1H-pyrazol-4-yl]pyrrolo[1,2-b]pyridazine-7-carboxamide] had an IC50 of 0.012 µM. For the compound `O=C(Nc1ccsc1Cl)c1ccc2ccc(N3CCCNCC3)nn12` [Example 66, N-(2-chlorothiophen-3-yl)-2-(1,4-diazepan-1-yl)pyrrolo[1,2-b]pyridazine-7-carboxamide trifluoroacetate], 0.636 µM corresponded to half-maximal inhibition (IC50). `O=C(Nc1ccccc1Cl)c1ccc2ccc(N3CC4CCC3CN4)nn12` (stereo not shown) [Example 64, N-(2-chlorophenyl)-2-(2,5-diazabicyclo[2.2.2]oct-2-yl)pyrrolo[1,2-b]pyridazine-7-carboxamide trifluoroacetate] displayed an IC50 of 0.611 µM. In turn, `O=C(Nc1cscc1C(F)F)c1ccc2ccc(N3CCCNCC3)nn12` [Example 69, 2-(1,4-diazepan-1-yl)-N-[4-(difluoromethyl)thiophen-3-yl]pyrrolo[1,2-b]pyridazine-7-carboxamide trifluoroacetate] showed an IC50 of 0.151 µM. For `Cn1cc(NC(=O)c2ccc3ccc(N4C[C@@H]5CC[C@H]4CN5)nn23)c(Cl)n1` (single isomer, unassigned) [Example 33, N-(3-chloro-1-methyl-1H-pyrazol-4-yl)-2-[(1S,4S)- or (1R,4R)-2,5-diazabicyclo[2.2.2]oct-2-yl]pyrrolo[1,2-b]pyridazine-7-carboxamide trifluoroacetate] the value was 0.045 µM; for `N#Cc1ccccc1NC(=O)c1ccc2ccc(N[C@@H]3CCCC[C@@H]3O)nn12` [Example 104, N-(2-cyanophenyl)-2-{[(1R,2S)-2-hydroxycyclohexyl]amino}pyrrolo[1,2-b]pyridazine-7-carboxamide trifluoroacetate], 1.86 µM; for `Cn1cc(NC(=O)c2ccc3ccc(N4C[C@@H]5CC[C@H]4CN5)nn23)c(C(F)F)n1` (single isomer, unassigned) [Example 37, 2-[(1S,4S)- or (1R,4R)-2,5-diazabicyclo[2.2.2]oct-2-yl]-N-[3-(difluoromethyl)-1-methyl-1H-pyrazol-4-yl]pyrrolo[1,2-b]pyridazine-7-carboxamide trifluoroacetate], 0.003 µM. Consider `N[C@H]1CCCC[C@H]1Nc1ccc2ccc(C(=O)Nc3ccsc3Cl)n2n1` [Example 71, 2-{[(1R,2S)-2-aminocyclohexyl]amino}-N-(2-chlorothiophen-3-yl)pyrrolo[1,2-b]pyridazine-7-carboxamide trifluoroacetate], for which half-maximal inhibition (IC50) was put at 0.004 µM.

Consider `O=C(Nc1ccccc1Cl)c1ccc2ccc(N[C@@H]3CCCC[C@@H]3O)nn12` [Example 93, N-(2-chlorophenyl)-2-{[(1R,2S)-2-hydroxycyclohexyl]amino}pyrrolo[1,2-b]pyridazine-7-carboxamide trifluoroacetate], for which the IC50 was 6.84 µM. `O=C(Nc1cscc1Br)c1ccc2ccc(N3CCCNCC3)nn12` [Example 60, N-(4-bromothiophen-3-yl)-2-(1,4-diazepan-1-yl)pyrrolo[1,2-b]pyridazine-7-carboxamide trifluoroacetate] returned an IC50 of 0.548 µM.

Regarding `N#Cc1ccccc1NC(=O)c1ccc2ccc(N[C@@H]3CCCC(F)(F)[C@@H]3N)nn12` [Example 110, 2-{[(1R,2R)-2-amino-3,3-difluorocyclohexyl]amino}-N-(2-cyanophenyl)pyrrolo [1,2-b]pyridazine-7-carboxamide trifluoroacetate], half-maximal inhibition (IC50) was put at 0.825 µM. As for `N#Cc1ccccc1NC(=O)c1ccc2ccc(N[C@@H]3CCCC[C@@H]3N)nn12` [Example 106, 2-{[(1R,2S)-2-aminocyclohexyl]amino}-N-(2-cyanophenyl)pyrrolo [1,2-b]pyridazine-7-carboxamide trifluoroacetate], the IC50 is 0.006 µM. In the case of `O=C(Nc1cscc1Cl)c1ccc2ccc(N3CCCNCC3)nn12` [Example 82, N-(4-chlorothiophen-3-yl)-2-(1,4-diazepan-1-yl)pyrrolo[1,2-b]pyridazine-7-carboxamide trifluoroacetate], 0.308 µM corresponded to half-maximal inhibition (IC50).

In turn, `Cn1cc(NC(=O)c2ccc3ccc(N[C@@H]4CCCC[C@@H]4O)nn23)c(C(F)(F)F)n1` [Example 5, 2-{[(1R,2S)-2-hydroxycyclo-hexyl]amino}-N-[1-methyl-3-(trifluoromethyl)-1H-pyrazol-4-yl]pyrrolo[1,2-b]pyridazine-7-carboxamide trifluoroacetate] registered an IC50 of 0.122 µM. Compound `N[C@H]1CCCC[C@H]1Nc1ccc2ccc(C(=O)Nc3cscc3Cl)n2n1` [Example 85, 2-{[(1R,2S)-2-aminocyclohexyl]amino}-N-(4-chlorothiophen-3-yl)pyrrolo[1,2-b]pyridazine-7-carboxamide trifluoroacetate] returned an IC50 of 0.002 µM. With `Cn1cc(NC(=O)c2ccc3ccc(N4CCCNCC4)nn23)c(C(F)F)n1` [Example 15, 2-(1,4-diazepan-1-yl)-N-[3-(difluoromethyl)-1-methyl-1H-pyrazol-4-yl]pyrrolo[1,2-b]pyridazine-7-carboxamide trifluoroacetate], the IC50 came to 0.002 µM.

As for `O=C(Nc1ccsc1Br)c1ccc2ccc(N3CCCNCC3)nn12` [Example 76, N-(2-bromothiophen-3-yl)-2-(1,4-diazepan-1-yl)pyrrolo[1,2-b]pyridazine-7-carboxamide trifluoroacetate], inhibition was half-maximal at 1.32 µM (IC50). In turn, `Cn1cc(NC(=O)c2ccc3ccc(N4C[C@@H]5CC[C@H]4CN5)nn23)c(Br)n1` (single isomer, unassigned) [Example 35, N-(3-bromo-1-methyl-1H-pyrazol-4-yl)-2-[(1S,4S)- or (1R,4R)-2,5-diazabicyclo[2.2.2]oct-2-yl]pyrrolo[1,2-b]pyridazine-7-carboxamide trifluoroacetate] displayed an IC50 of 0.034 µM.
